# Measured values as given in US20220117938A1, “COMBINATON THERAPY WITH A DON PRODRUG AND AN IMMUNE CHECKPOINT INHIBITOR” (DRACEN PHARMACEUTICALS, INC., priority 2019, published 2022).
# System: MC38 tumors
# Test: Anti-tumor efficacy of Compound 1 and Compound 3 by IV and SC routes in the MC38 model (Example 9)
# Assay type: in vivo, mice
# Experimental: Female C57BL/6 mice were inoculated subcutaneously in the right flank with MC38 cells for tumor development. Six days after tumor inoculation, mice with tumor sizes ranging from 52-97 mm^3 (average tumor size 71 mm^3) were selected and assigned into 10 groups using stratified randomization with 8 mice per group based upon their tumor volumes. The treatments were started from the day of randomization (defined as D0), Group 1 was treated with Vehicle control, SC qd×5 days on (Mon-Fri)×4 cycles; Group 2 was treated with Compound 1, 1.4 mpk SC, qd×5 days on (Mon-Fri)×4 cycles; Group 3 was treated with Compound 1, 7 mpk IV, biw (Mon, Thu)×4 cycles; Group 4 was treated with Compound 1, 14 mpk IV, biw (Mon, Thu)×4 cycles; Group 5 was treated with Compound 1, 14 mpk IV, qw (Mon)×4 cycles; Group 6 was treated with Compound 1, 21 mpk IV, qw (Mon)×4 cycles; Group 7 was treated with Compound 3, 1 mpk SC, qd 5 days on (Mon-Fri)×4 cycles; Group 8 was treated with Compound 3, 3 mpk SC, qd 5 days on (Mon-Fri)×4 cycles; Group 9 was treated with Compound 3, 9 mpk SC, qd 5 days on (Mon-Fri)×4 cycles; and Group 10 was treated with Compound 3, 7 mpk IV, tiw (Mon, Wed, Fri)×4 cycles. The tumor sizes were measured three times per week during the treatment. Survival was monitored with tumor volume exceeding 2000 mm^3 as endpoint. The entire study was terminated on D44 after start of the treatment. All treatments were well-tolerated without any adverse effects or significant body weight loss.
# [1] = Group 2, 1.4 mpk SC qd Mon-Fri x4 cycles
# [2] = Group 2, 1.4 mpk SC qd Mon-Fri x4 cycles, day 11
# [3] = Group 3, 7 mpk IV biw x4 cycles
# [4] = Group 3, 7 mpk IV biw x4 cycles, day 11
# [5] = Group 4, 14 mpk IV biw x4 cycles
# [6] = Group 4, 14 mpk IV biw x4 cycles, day 11
compound,measurement,setting,value
"CC(=O)N[C@@H](Cc1c[nH]c2ccccc12)C(=O)N[C@@H](CCC(=O)C=[N+]=[N-])C(=O)OC(C)C [Compound 1, Isopropyl (S)-2-((S)-2-acetamido-3-(1H-indol-3-yl)propanamido)-6-diazo-5-oxohexanoate]",ILS,[1],170.0%
same,MST,[1],40.5 days
same,RTV at day 11,[1],0.63 ± 0.11
same,Tumor Size at day 11,[1],43 ± 6 mm^3
same,Tumor volume,"Group 2, 1.4 mpk SC qd Mon-Fri x4 cycles, day 0",71 ± 5 mm^3
same,Tumor volume,"Group 2, 1.4 mpk SC qd Mon-Fri x4 cycles, day 2",64 ± 5 mm^3
same,Tumor volume,"Group 2, 1.4 mpk SC qd Mon-Fri x4 cycles, day 4",68 ± 10 mm^3
same,Tumor volume,"Group 2, 1.4 mpk SC qd Mon-Fri x4 cycles, day 7",61 ± 5 mm^3
same,Tumor volume,"Group 2, 1.4 mpk SC qd Mon-Fri x4 cycles, day 9",39 ± 3 mm^3
same,T/C,[2],3.86%
same,TGI,[2],102.69%
same,Tumor volume,[2],43 ± 6 mm^3
same,Tumor volume,"Group 2, 1.4 mpk SC qd Mon-Fri x4 cycles, day 14",51 ± 9 mm^3
same,Tumor volume,"Group 2, 1.4 mpk SC qd Mon-Fri x4 cycles, day 16",50 ± 7 mm^3
same,Tumor volume,"Group 2, 1.4 mpk SC qd Mon-Fri x4 cycles, day 18",52 ± 9 mm^3
same,Tumor volume,"Group 2, 1.4 mpk SC qd Mon-Fri x4 cycles, day 21",44 ± 7 mm^3
same,Tumor volume,"Group 2, 1.4 mpk SC qd Mon-Fri x4 cycles, day 23",41 ± 9 mm^3
same,Tumor volume,"Group 2, 1.4 mpk SC qd Mon-Fri x4 cycles, day 25",42 ± 11 mm^3
same,Tumor volume,"Group 2, 1.4 mpk SC qd Mon-Fri x4 cycles, day 28",55 ± 14 mm^3
same,Tumor volume,"Group 2, 1.4 mpk SC qd Mon-Fri x4 cycles, day 30",140 ± 50 mm^3
same,Tumor volume,"Group 2, 1.4 mpk SC qd Mon-Fri x4 cycles, day 32",303 ± 119 mm^3
same,Tumor volume,"Group 2, 1.4 mpk SC qd Mon-Fri x4 cycles, day 35",509 ± 166 mm^3
same,Tumor volume,"Group 2, 1.4 mpk SC qd Mon-Fri x4 cycles, day 37",896 ± 217 mm^3
same,ILS,[3],123.3%
same,MST,[3],33.5 days
same,RTV at day 11,[3],1.44 ± 0.20
same,Tumor Size at day 11,[3],99 ± 11 mm^3
same,Tumor volume,"Group 3, 7 mpk IV biw x4 cycles, day 0",71 ± 4 mm^3
same,Tumor volume,"Group 3, 7 mpk IV biw x4 cycles, day 2",61 ± 9 mm^3
same,Tumor volume,"Group 3, 7 mpk IV biw x4 cycles, day 4",64 ± 7 mm^3
same,Tumor volume,"Group 3, 7 mpk IV biw x4 cycles, day 7",98 ± 8 mm^3
same,Tumor volume,"Group 3, 7 mpk IV biw x4 cycles, day 9",79 ± 7 mm^3
same,T/C,[4],8.87%
same,TGI,[4],97.42%
same,Tumor volume,[4],99 ± 11 mm^3
same,Tumor volume,"Group 3, 7 mpk IV biw x4 cycles, day 14",140 ± 16 mm^3
same,Tumor volume,"Group 3, 7 mpk IV biw x4 cycles, day 16",134 ± 10 mm^3
same,Tumor volume,"Group 3, 7 mpk IV biw x4 cycles, day 18",133 ± 15 mm^3
same,Tumor volume,"Group 3, 7 mpk IV biw x4 cycles, day 21",236 ± 36 mm^3
same,Tumor volume,"Group 3, 7 mpk IV biw x4 cycles, day 23",317 ± 59 mm^3
same,Tumor volume,"Group 3, 7 mpk IV biw x4 cycles, day 25",337 ± 56 mm^3
same,Tumor volume,"Group 3, 7 mpk IV biw x4 cycles, day 28",602 ± 144 mm^3
same,Tumor volume,"Group 3, 7 mpk IV biw x4 cycles, day 30",1181 ± 278 mm^3
same,ILS,[5],133.3%
same,MST,[5],35 days
same,RTV at day 11,[5],1.06 ± 0.22
same,Tumor Size at day 11,[5],69 ± 11 mm^3
same,Tumor volume,"Group 4, 14 mpk IV biw x4 cycles, day 0",72 ± 6 mm^3
same,Tumor volume,"Group 4, 14 mpk IV biw x4 cycles, day 2",80 ± 12 mm^3
same,Tumor volume,"Group 4, 14 mpk IV biw x4 cycles, day 4",70 ± 8 mm^3
same,Tumor volume,"Group 4, 14 mpk IV biw x4 cycles, day 7",86 ± 13 mm^3
same,Tumor volume,"Group 4, 14 mpk IV biw x4 cycles, day 9",70 ± 11 mm^3
same,T/C,[6],6.51%
same,TGI,[6],100.28%
same,Tumor volume,[6],69 ± 11 mm^3
same,Tumor volume,"Group 4, 14 mpk IV biw x4 cycles, day 14",95 ± 14 mm^3
same,Tumor volume,"Group 4, 14 mpk IV biw x4 cycles, day 16",107 ± 25 mm^3
same,Tumor volume,"Group 4, 14 mpk IV biw x4 cycles, day 18",96 ± 22 mm^3
same,Tumor volume,"Group 4, 14 mpk IV biw x4 cycles, day 21",144 ± 45 mm^3
same,Tumor volume,"Group 4, 14 mpk IV biw x4 cycles, day 23",163 ± 41 mm^3
same,Tumor volume,"Group 4, 14 mpk IV biw x4 cycles, day 25",167 ± 47 mm^3
same,Tumor volume,"Group 4, 14 mpk IV biw x4 cycles, day 28",261 ± 54 mm^3
same,Tumor volume,"Group 4, 14 mpk IV biw x4 cycles, day 30",562 ± 124 mm^3
same,Tumor volume,"Group 4, 14 mpk IV biw x4 cycles, day 32",967 ± 171 mm^3
same,Tumor volume,"Group 4, 14 mpk IV biw x4 cycles, day 35",1884 ± 337 mm^3
same,ILS,"Group 5, 14 mpk IV qw x4 cycles",86.7%
